The results in this text go back to patent US20230365556A1, “N-ACYL AMINO ACID COMPOUNDS AND METHODS OF USE” (Pliant Therapeutics, Inc., priority 2016, published 2023).

Experiment [1] has as its target recombinant human integrin αvβ1 (Homo sapiens (Human), UniProt P05556+P06756). The experiment is described as follows: Solid phase integrin αvβ1 binding assay (fibronectin). Particulars: recombinant human integrin αvβ1 coated plate, recombinant fibronectin 2 ug/ml, 2 hours at 25° C., read-out: αvβ1 Inhibition IC50 (nM)-range. The protocol: Example B2—Solid Phase Integrin αvβ1 Binding Assay
Microplates were coated with recombinant human integrin αvβ1 (2 ug/ml) in PBS (100 ul/well 4° C., overnight). The coating solution was removed, washed with PBS. Plate was blocked with 200 ul/well of Block Buffer (2% BSA in PBS) at 37° C. for 1 h. Dilutions of testing compounds and recombinant fibronectin (2 ug/ml) in binding and washing buffer (50 mM Tris-HCl, ph7.5; 0.1% BSA, 1 mM MnCl2; NaCl 150 mM; 0.02% Tween-20; 1 mM CaCl2); 1 mM MgCl2) were added. The plate was incubated for 2 hours at 25° C., washed, and incubated for 1 hour with Biotin-Anti-fibronectin. Bound antibody was detected by peroxidase-conjugated streptavidin. The IC50 values for testing compounds were calculated by a four-parameter logistic regression.
The compounds tested were compound samples prepared according to procedures described in the Synthetic Examples section, with the stereochemical purity as indicated in the Examples. The compounds tested were predominantly S-configuration at the alpha carbon of the amino acid scaffold, except for compounds 123, 124, and 125 which were predominantly R-configuration at the alpha carbon of the amino acid scaffold.

The target of experiment [2] is αvβ1 integrin (αvβ1 expressing CHO cells) (Homo sapiens (Human), UniProt P05556+P06756). Nature of the experiment: Cell adhesion assay: inhibition of αvβ1 expressing CHO cells attaching to TGFβ1LAP. It is filed as cell-based. Particulars: 1 h at 37° C., crystal violet absorbance 595 nm, read-out: αvβ1 Inhibition IC50 (nM)-range. An outline of the steps:
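Plates coated with 2 ug/ml TGFβ1LAP and blocked with 2% BSA; cells (1.0×10^6 cells/ml in DMEM) incubated with compound 1 hour at 37° C. Non-adherent cells removed by centrifugation; adherent cells stained with crystal violet, absorbance 595 nm, IC50 by four-parameter non-linear regression.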

As usually defined, the IC50 is the midpoint of a concentration-inhibition curve.

Chain of recombinant human integrin αvβ1 (P06756 31-889): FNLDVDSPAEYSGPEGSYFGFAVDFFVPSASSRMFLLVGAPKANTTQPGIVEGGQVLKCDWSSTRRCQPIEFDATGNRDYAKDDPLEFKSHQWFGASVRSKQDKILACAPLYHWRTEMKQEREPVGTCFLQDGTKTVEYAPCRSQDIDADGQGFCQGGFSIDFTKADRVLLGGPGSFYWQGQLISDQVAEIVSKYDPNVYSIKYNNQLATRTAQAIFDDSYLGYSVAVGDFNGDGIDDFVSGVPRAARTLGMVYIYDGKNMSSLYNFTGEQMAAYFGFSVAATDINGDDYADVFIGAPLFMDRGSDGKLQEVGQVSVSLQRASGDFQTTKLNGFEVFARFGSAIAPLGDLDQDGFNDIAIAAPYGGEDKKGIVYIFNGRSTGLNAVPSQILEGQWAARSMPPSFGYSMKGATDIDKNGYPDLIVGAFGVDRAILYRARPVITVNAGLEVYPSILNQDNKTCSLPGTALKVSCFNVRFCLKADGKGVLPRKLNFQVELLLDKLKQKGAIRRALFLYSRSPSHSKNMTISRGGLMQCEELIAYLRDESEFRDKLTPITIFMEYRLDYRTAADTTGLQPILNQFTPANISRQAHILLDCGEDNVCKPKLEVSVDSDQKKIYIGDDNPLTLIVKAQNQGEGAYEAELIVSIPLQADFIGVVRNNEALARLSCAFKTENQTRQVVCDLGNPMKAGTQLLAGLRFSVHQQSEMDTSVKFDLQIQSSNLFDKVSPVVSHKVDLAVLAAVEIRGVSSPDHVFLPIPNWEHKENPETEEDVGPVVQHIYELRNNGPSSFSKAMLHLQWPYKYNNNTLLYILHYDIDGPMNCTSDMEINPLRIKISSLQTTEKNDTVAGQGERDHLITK
Chain of recombinant human integrin αvβ1 (P06756 891-992 partner): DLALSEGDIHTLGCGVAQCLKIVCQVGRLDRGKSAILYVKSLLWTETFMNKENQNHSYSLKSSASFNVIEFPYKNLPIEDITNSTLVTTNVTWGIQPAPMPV
Chain of recombinant human integrin αvβ1 (P05556 21-728): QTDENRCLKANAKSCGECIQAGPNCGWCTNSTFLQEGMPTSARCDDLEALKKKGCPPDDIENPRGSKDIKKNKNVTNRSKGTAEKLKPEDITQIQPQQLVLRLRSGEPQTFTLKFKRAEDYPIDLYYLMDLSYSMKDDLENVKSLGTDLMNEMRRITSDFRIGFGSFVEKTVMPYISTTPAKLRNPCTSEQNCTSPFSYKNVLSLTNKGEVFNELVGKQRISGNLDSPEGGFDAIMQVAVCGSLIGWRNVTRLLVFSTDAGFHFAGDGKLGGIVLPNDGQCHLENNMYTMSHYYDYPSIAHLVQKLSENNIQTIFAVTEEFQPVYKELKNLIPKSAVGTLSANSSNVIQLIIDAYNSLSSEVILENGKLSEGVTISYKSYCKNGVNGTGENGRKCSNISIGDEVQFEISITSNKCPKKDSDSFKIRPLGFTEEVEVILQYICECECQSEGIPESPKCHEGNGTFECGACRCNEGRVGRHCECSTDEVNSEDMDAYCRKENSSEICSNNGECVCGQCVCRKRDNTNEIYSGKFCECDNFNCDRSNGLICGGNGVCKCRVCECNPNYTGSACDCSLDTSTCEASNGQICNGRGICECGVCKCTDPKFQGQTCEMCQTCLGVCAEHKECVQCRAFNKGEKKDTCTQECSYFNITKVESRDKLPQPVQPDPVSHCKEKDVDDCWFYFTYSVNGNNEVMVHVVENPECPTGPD
Chain of αvβ1 integrin (αvβ1 expressing CHO cells) (P06756 31-889): as the sequence (P06756 31-889) above
Chain of αvβ1 integrin (αvβ1 expressing CHO cells) (P06756 891-1048 partner): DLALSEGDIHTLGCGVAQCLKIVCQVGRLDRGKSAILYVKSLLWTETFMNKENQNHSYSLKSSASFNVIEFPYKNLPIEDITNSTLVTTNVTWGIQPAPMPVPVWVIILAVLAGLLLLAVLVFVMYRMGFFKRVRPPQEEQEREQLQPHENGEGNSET
Chain of αvβ1 integrin (αvβ1 expressing CHO cells) (P05556 21-798): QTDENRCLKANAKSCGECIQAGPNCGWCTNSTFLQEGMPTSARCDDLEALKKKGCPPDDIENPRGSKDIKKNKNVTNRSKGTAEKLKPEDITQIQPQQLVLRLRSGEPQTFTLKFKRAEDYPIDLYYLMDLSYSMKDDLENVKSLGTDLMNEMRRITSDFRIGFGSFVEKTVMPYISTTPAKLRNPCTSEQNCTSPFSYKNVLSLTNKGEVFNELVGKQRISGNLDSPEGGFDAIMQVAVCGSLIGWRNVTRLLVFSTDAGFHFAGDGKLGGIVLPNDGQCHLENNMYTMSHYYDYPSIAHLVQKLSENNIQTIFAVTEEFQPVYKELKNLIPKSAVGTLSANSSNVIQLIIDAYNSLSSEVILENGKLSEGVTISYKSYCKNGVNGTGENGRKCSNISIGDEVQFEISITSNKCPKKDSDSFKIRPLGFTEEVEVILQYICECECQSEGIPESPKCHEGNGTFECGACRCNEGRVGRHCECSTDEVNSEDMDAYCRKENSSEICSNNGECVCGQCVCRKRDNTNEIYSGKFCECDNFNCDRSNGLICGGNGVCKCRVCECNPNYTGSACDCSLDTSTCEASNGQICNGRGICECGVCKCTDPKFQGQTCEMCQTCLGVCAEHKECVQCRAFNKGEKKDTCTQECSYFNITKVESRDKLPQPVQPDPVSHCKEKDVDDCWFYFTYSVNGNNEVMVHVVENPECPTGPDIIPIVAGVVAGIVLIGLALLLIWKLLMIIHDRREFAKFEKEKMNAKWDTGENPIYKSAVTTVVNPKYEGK

Take `O=C(N[C@@H](CCCCCCCc1ccc2c(n1)NCCC2)C(=O)O)c1cc(F)cc(C(F)(F)F)c1` [Compound 122]: in experiment [1], the IC50 is less than 50 nM. On to `Cc1cc(C)n(-c2cccc(C(=O)N[C@@H](CCCCCCCc3ccc4c(n3)NCCC4)C(=O)O)c2)n1` [Compound 119], for which, in experiment [1], the IC50 was less than 50 nM. Turning to `CC(C)Oc1ccc(C(=O)N[C@@H](CCCCCCCc2ccc3c(n2)NCCC3)C(=O)O)c(Cl)c1` [Compound 117], in experiment [1], the IC50 was less than 50 nM. On the same count and under the same terms, the same measure for `O=C(NC(CCCCCCCc1ccc2c(n1)NCCC2)C(=O)O)c1ccc(F)cc1` (stereo not drawn) [Compound 88]: less than 50 nM; for `O=C(N[C@H](CCCCCCCc1ccc2c(n1)NCCC2)C(=O)O)c1cccc(-c2cncs2)c1` [Compound 124]: greater than 1000 nM; for `O=C(O)C(CCCCCCCc1ccc2c(n1)NCCC2)NC(=O)N1CCn2c(nnc2C(F)(F)F)C1` (stereo not drawn) [Compound 97]: less than 50 nM. The same measure, in the same setting: the same measure for `O=C(NC(CCCCCCCc1ccc2c(n1)NCCC2)C(=O)O)c1ccc(Cl)cc1` (stereo not drawn) [Compound 87]: less than 50 nM; for `COc1ccc(C(=O)NC(CCCCCCCc2ccc3c(n2)NCCC3)C(=O)O)cc1` (stereo not drawn) [Compound 89]: less than 50 nM.

For the molecule `Cn1ncc2ccc(C(=O)NC(CCCCCCCc3ccc4c(n3)NCCC4)C(=O)O)cc21` (stereo not drawn) [Compound 81, 2-(1-methyl-1H-indazole-6-carboxamido)-9-(5,6,7,8-tetrahydro-1,8-naphthyridin-2-yl)nonanoic acid], the half-inhibitory concentration (IC50) was less than 50 nM in experiment [1] and 50 to 250 nM in experiment [2].

Turning to `O=C(NC(CCCCCCCc1ccc2c(n1)NCCC2)C(=O)O)c1cccc(F)c1` (stereo not drawn) [Compound 92], the IC50 in experiment [1] is less than 50 nM. Still for that read-out and setting: the same measure for `O=C(NC(CCCCCCCc1ccc2c(n1)NCCC2)C(=O)O)c1cccc(Cl)c1` (stereo not drawn) [Compound 91]: less than 50 nM; for `O=C(NC(CN1CCC(OCCCc2ccc3c(n2)NCCC3)C1)C(=O)O)c1c(Cl)cccc1Cl` (stereo not drawn) [Compound 75, 2-(2,6-dichlorobenzamido)-3-(3-(3-(5,6,7,8-tetrahydro-1,8-naphthyridin-2-yl)propoxy)pyrrolidin-1-yl)propanoic acid]: 250 to 1000 nM. Same read-out and setting: the same measure for `O=C(NC(CCCCCCCc1ccc2c(n1)NCCC2)C(=O)O)c1ccccc1Cl` (stereo not drawn) [Compound 96]: less than 50 nM; for `O=C(NC(CCCCCCCc1ccc2c(n1)NCCC2)C(=O)O)c1ccccc1F` (stereo not drawn) [Compound 95]: less than 50 nM; for `N#Cc1ccc(C(=O)NC(CCCCCCCc2ccc3c(n2)NCCC3)C(=O)O)cc1` (stereo not drawn) [Compound 90]: less than 50 nM. On to `Cn1cc(-c2cccc(C(=O)N[C@H](CCCCCCCc3ccc4c(n3)NCCC4)C(=O)O)c2)cn1` [Compound 123], for which, in experiment [1], the IC50 is greater than 1000 nM. Regarding `O=C(N[C@@H](CCCCCCCc1ccc2c(n1)NCCC2)C(=O)O)c1cc(OC(F)(F)F)ccc1Cl` [Compound 118], the IC50 in experiment [1] was less than 50 nM. Still for that read-out and setting: the same measure for `O=C(N[C@@H](CCCCCCCc1ccc2c(n1)NCCC2)C(=O)O)c1cccc(-c2cncs2)c1` [Compound 126]: 50 to 250 nM. Still for that read-out and setting: the same measure for `O=C(NC(CCCCCCCc1ccc2c(n1)NCCC2)C(=O)O)c1c(Cl)cccc1Cl` (stereo not drawn) [Compound 65, 2-(2,6-dichlorobenzamido)-9-(5,6,7,8-tetrahydro-1,8-naphthyridin-2-yl)nonanoic acid]: less than 50 nM; for `COc1cccc(C(=O)NC(CCCCCCCc2ccc3c(n2)NCCC3)C(=O)O)c1` (stereo not drawn) [Compound 93]: less than 50 nM.
